Assay results published in patent publication US4596893A (priority 1985, dated 1986).

What was measured:
Test in all cases: Herbicide activity test in green house
Type in all cases: in vivo
Italian grass [1] = settings: sprayed at 2-4 leaves, evaluated on 14th day
Protocol: (§1) In culture dishes white mustard, pig weed, fat hen, autumn wheat, Italian grass and corn seeds were sown. When the seeds were sprouted 10% EC and 10% WSC were prepared from the compounds to be tested, and after dilution with water 0.2% spray was prepared. 2-4 leaves plants were sprayed with this liquid so that for each compound a dose corresponding to 2.5-5-10 kg./ha active ingredient was used. On the 14th day after the treatment the extent of the injury of the plants was evaluated and expressed in %.

autumn wheat [2] = settings: sprayed at 2-4 leaves, evaluated on 14th day
Protocol: as §1

corn [3] = settings: sprayed at 2-4 leaves, evaluated on 14th day
Protocol: as §1

fat hen [4] = settings: sprayed at 2-4 leaves, evaluated on 14th day
Protocol: as §1

pig weed [5] = settings: sprayed at 2-4 leaves, evaluated on 14th day
Protocol: as §1

white mustard [6] = settings: sprayed at 2-4 leaves, evaluated on 14th day
Protocol: as §1

white mustard [7] = settings: dose 1.25 kg/ha, sprayed at 2-4 leaves, evaluated on 14th day
pig weed [8] = settings: dose 1.25 kg/ha, sprayed at 2-4 leaves, evaluated on 14th day
fat hen [9] = settings: dose 1.25 kg/ha, sprayed at 2-4 leaves, evaluated on 14th day
Italian grass [10] = settings: dose 1.25 kg/ha, sprayed at 2-4 leaves, evaluated on 14th day
autumn wheat [11] = settings: dose 1.25 kg/ha, sprayed at 2-4 leaves, evaluated on 14th day
corn [12] = settings: dose 1.25 kg/ha, sprayed at 2-4 leaves, evaluated on 14th day

SMILES | extent of the injury of the plants, Italian grass (Italian grass [1]; dose 5.0 kg/ha) | extent of the injury of the plants, autumn wheat (autumn wheat [2]; dose 5.0 kg/ha) | extent of the injury of the plants, corn (corn [3]; dose 5.0 kg/ha) | extent of the injury of the plants, fat hen (fat hen [4]; dose 2.5 kg/ha) | extent of the injury of the plants, fat hen (fat hen [4]; dose 5.0 kg/ha) | extent of the injury of the plants, pig weed (pig weed [5]; dose 2.5 kg/ha) | extent of the injury of the plants, pig weed (pig weed [5]; dose 5.0 kg/ha) | extent of the injury of the plants, white mustard (white mustard [6]; dose 2.5 kg/ha) | extent of the injury of the plants, white mustard (white mustard [6]; dose 5.0 kg/ha) | extent of the injury of the plants, white mustard (white mustard [7]) | extent of the injury of the plants, pig weed (pig weed [8]) | extent of the injury of the plants, fat hen (fat hen [9]) | extent of the injury of the plants, Italian grass (Italian grass [10]) | extent of the injury of the plants, autumn wheat (autumn wheat [11]) | extent of the injury of the plants, corn (corn [12]) | extent of the injury of the plants, Italian grass (Italian grass [1]; dose 2.5 kg/ha) | extent of the injury of the plants, autumn wheat (autumn wheat [2]; dose 2.5 kg/ha) | extent of the injury of the plants, corn (corn [3]; dose 2.5 kg/ha)
O=[N+]([O-])c1cc([N+](=O)[O-])c(O)c(C(F)(F)F)c1 [2-trifluoromethyl-4,6-dinitro-phenol-diethanol-amine] | 10% | 10% | 10% | 75% | 80% | 60% | 85% | 60% | 80% | 40% | 50% | 70% | 0% | 0% | 0% | – | – | –
CNC.O=[N+]([O-])c1cc([N+](=O)[O-])c(O)c(C(F)(F)F)c1 [2-trifluoromethyl-4,6-dinitro-phenol-dimethyl-amine] | 20% | 10% | 10% | 75% | 85% | 65% | 80% | 55% | 75% | 45% | 50% | 70% | 0% | 0% | 0% | 0% | 0% | 0%
CC(=O)Oc1c([N+](=O)[O-])cc([N+](=O)[O-])cc1C(F)(F)F [2-trifluoromethyl-4,6-dinitrophenol methyl carbonyl] | 20% | 10% | 10% | 90% | 100% | 80% | 95% | 70% | 90% | 40% | 50% | 70% | 0% | 0% | 0% | 10% | 0% | 0%
CCC(=O)Oc1c([N+](=O)[O-])cc([N+](=O)[O-])cc1C(F)(F)F [2-trifluoromethyl-4,6-dinitro-phenol-ethyl carbonyl] | 10% | 10% | 10% | 70% | 80% | 60% | 80% | 50% | 80% | 40% | 40% | 60% | 0% | 0% | 0% | 0% | 0% | 0%
O=[N+]([O-])c1cc([N+](=O)[O-])c(O)c(C(F)(F)F)c1 [2-trifluoromethyl-4,6-dinitro-phenol-K] | 15% | 15% | 15% | 90% | 100% | 85% | 100% | 75% | 90% | 65% | 45% | 70% | 0% | 0% | 0% | 10% | 0% | 10%
O=[N+]([O-])c1cc([N+](=O)[O-])c(O)c(C(F)(F)F)c1 [2-trifluoromethyl-4,6-dinitro-phenol-Na] | 15% | 15% | 15% | 90% | 100% | 85% | 100% | 80% | 100% | 50% | 60% | 70% | 0% | 0% | 0% | 10% | 0% | 10%
O=[N+]([O-])c1cc([N+](=O)[O-])c(O)c(C(F)(F)F)c1 [2-trifluoromethyl-4,6-dinitro-phenol, 2-Trifluoromethyl-4,6-dinitro-phenol] | 30% | 10% | 15% | 90% | 100% | 85% | 100% | 75% | 95% | 45% | 50% | 75% | 0% | 0% | 0% | 10% | 5% | 5%
